In patent US20230398130A1, “METHODS AND COMPOSITIONS FOR DIFFERENTIATING STEM CELLS” (Massachusetts Institute of Technology, priority 2020, published 2023):

Tests used:
[1] = tested on: ISC-enriched organoids; assay: Primary screen, 384-well 2.5-D organoid differentiation (ENR+CD, 6 days): carbachol-induced lysozyme secretion (LYZ.S); assay type: cell-based, murine; conditions: primary screen; for Dose.FC.LYZ.S: FC vs plate median; for Z.LYZ.S: standard z score; for SSMD.LYZ.S: strictly standardized mean difference
Source text: (§1) High-throughput screening.

[2] = tested on: ISC-enriched organoids; assay: Primary screen, 384-well 2.5-D organoid differentiation (ENR+CD, 6 days, Target Selective Inhibitor Library, vs whole-plate median): ATP (CellTiter-Glo 3D, CTG); conditions: for Dose.FC.CTG / SSMD.CTG: primary screen; for Dose.FC.CTG: FC vs plate median; for Z.CTG: standard z score of FC; for SSMD.CTG: strictly standardized mean difference
[3] = tested on: ISC-enriched organoids; assay: Primary screen, 384-well 2.5-D organoid differentiation (ENR+CD, 6 days): basal lysozyme secretion (LYZ.NS); assay type: cell-based, murine; conditions: for Dose.FC.LYZ.NS / SSMD.LYZ.NS: primary screen; for Dose.FC.LYZ.NS: FC vs plate median; for Z.LYZ.NS: standard z score of FC; for SSMD.LYZ.NS: strictly standardized mean difference
Source text: as §1

[4] = 1st of the 4 dose lines of the treatment (dose not given)
[5] = 2nd of the 4 dose lines of the treatment (dose not given)
[6] = 3rd of the 4 dose lines of the treatment (dose not given)
[7] = 4th of the 4 dose lines of the treatment (dose not given)

Structure (SMILES) | Z.LYZ.S [1, 4] | Z.LYZ.S [1, 5] | Z.LYZ.S [1, 6] | Z.LYZ.S [1, 7] | SSMD.LYZ.S [1, 4] | SSMD.LYZ.S [1, 5] | SSMD.LYZ.S [1, 6] | SSMD.LYZ.S [1, 7] | Z.CTG ([2]; Dose 0.08 uM) | Z.CTG ([2]; Dose 0.40 uM) | Z.CTG ([2]; Dose 2.00 uM) | Z.CTG ([2]; Dose 10.00 uM) | SSMD.CTG [2, 4] | SSMD.CTG [2, 5] | SSMD.CTG [2, 6] | SSMD.CTG [2, 7] | SSMD.LYZ.NS [3, 4] | SSMD.LYZ.NS [3, 5] | SSMD.LYZ.NS [3, 6] | SSMD.LYZ.NS [3, 7] | further results
Cl.Cl.NC1(c2ccc(-c3nc4ccn5c(=O)[nH]nc5c4cc3-c3ccccc3)cc2)CCC1 [MK-2206 2HCl] | 0.460 | 0.536 | −1.546 | −2.370 | 0.403 | 0.232 | −1.686 | −1.628 | 0.169 | −0.055 | −0.425 | −1.290 | 0.242 | −0.074 | −0.453 | −1.730 | 0.230 | −0.481 | −1.586 | −1.642 | Dose.FC.LYZ.S ([1]; Dose 0.08 uM): 0.071 log 2 fold change; Dose.FC.LYZ.S ([1]; Dose 0.40 uM): 0.083 log 2 fold change; Dose.FC.LYZ.S ([1]; Dose 2.00 uM): −0.239 log 2 fold change; Dose.FC.LYZ.S ([1]; Dose 10.00 uM): −0.367 log 2 fold change; Dose.FC.CTG ([2]; Dose 0.08 uM): 0.071 log 2 fold change; Dose.FC.CTG ([2]; Dose 0.40 uM): −0.023 log 2 fold change; Dose.FC.CTG ([2]; Dose 2.00 uM): −0.178 log 2 fold change; Dose.FC.CTG ([2]; Dose 10.00 uM): −0.540 log 2 fold change; Dose.FC.LYZ.NS ([3]; Dose 0.08 uM): 0.024 log 2 fold change; Z.LYZ.NS ([3]; Dose 0.08 uM): 0.205; Dose.FC.LYZ.NS ([3]; Dose 0.40 uM): −0.063 log 2 fold change; Z.LYZ.NS ([3]; Dose 0.40 uM): −0.550; Dose.FC.LYZ.NS ([3]; Dose 2.00 uM): −0.182 log 2 fold change; Z.LYZ.NS ([3]; Dose 2.00 uM): −1.587; Dose.FC.LYZ.NS ([3]; Dose 10.00 uM): −0.236 log 2 fold change; Z.LYZ.NS ([3]; Dose 10.00 uM): −2.058
C[C@](O)(COc1ccc(C#N)cc1)C(=O)Nc1ccc(C#N)c(C(F)(F)F)c1 [MK-2866 (GTx-024)] | 0.466 | 0.322 | 0.506 | −0.463 | 0.378 | 0.164 | 0.307 | −0.543 | 0.003 | −0.474 | −0.210 | −0.877 | 0.004 | −0.285 | −0.199 | −0.814 | 0.314 | 0.150 | 0.169 | −0.515 | Dose.FC.LYZ.S ([1]; Dose 0.08 uM): 0.072 log 2 fold change; Dose.FC.LYZ.S ([1]; Dose 0.40 uM): 0.050 log 2 fold change; Dose.FC.LYZ.S ([1]; Dose 2.00 uM): 0.078 log 2 fold change; Dose.FC.LYZ.S ([1]; Dose 10.00 uM): −0.072 log 2 fold change; Dose.FC.CTG ([2]; Dose 0.08 uM): 0.001 log 2 fold change; Dose.FC.CTG ([2]; Dose 0.40 uM): −0.198 log 2 fold change; Dose.FC.CTG ([2]; Dose 2.00 uM): −0.088 log 2 fold change; Dose.FC.CTG ([2]; Dose 10.00 uM): −0.367 log 2 fold change; Dose.FC.LYZ.NS ([3]; Dose 0.08 uM): 0.035 log 2 fold change; Z.LYZ.NS ([3]; Dose 0.08 uM): 0.309; Dose.FC.LYZ.NS ([3]; Dose 0.40 uM): 0.028 log 2 fold change; Z.LYZ.NS ([3]; Dose 0.40 uM): 0.241; Dose.FC.LYZ.NS ([3]; Dose 2.00 uM): 0.036 log 2 fold change; Z.LYZ.NS ([3]; Dose 2.00 uM): 0.310; Dose.FC.LYZ.NS ([3]; Dose 10.00 uM): −0.059 log 2 fold change; Z.LYZ.NS ([3]; Dose 10.00 uM): −0.510
O=C(O)Cn1nnc(-c2cc(N3CCC(Oc4cc(F)ccc4Br)CC3)no2)n1 [MK-8245] | 0.449 | 1.194 | −0.399 | −0.799 | 0.442 | 0.527 | −0.357 | −0.752 | 0.374 | −0.269 | −0.051 | −0.629 | 0.453 | −0.219 | −0.054 | −0.921 | 0.168 | 0.200 | −0.322 | −0.716 | –
